Measured values as given in PubChem BioAssay (NCI).
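Briefly, cells in 96-well plates were exposed to five compound concentrations for 48 h, and endpoints were estimated by linear interpolation. The concentration for full growth arrest is given as TGI.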

Key:
Assay in all cases: NCI tumour cell line growth inhibition, 48 h
IGROV1 ovarian = test system: IGROV1 ovarian
SK-MEL-2 melanoma = test system: SK-MEL-2 melanoma
HOP-92 NSCLC = test system: HOP-92 NSCLC
SNB-19 CNS = test system: SNB-19 CNS
CCRF-CEM leukemia = test system: CCRF-CEM leukemia
K-562 leukemia = test system: K-562 leukemia
MALME-3M melanoma = test system: MALME-3M melanoma
EKVX NSCLC = test system: EKVX NSCLC
A498 renal = test system: A498 renal
NCI-H23 lung = test system: NCI-H23 lung
SNB-78 CNS = test system: SNB-78 CNS
DMS 114 small cell lung = test system: DMS 114 small cell lung
UACC-257 melanoma = test system: UACC-257 melanoma
OVCAR-4 ovarian = test system: OVCAR-4 ovarian
ACHN renal = test system: ACHN renal
SF-539 CNS = test system: SF-539 CNS
TK-10 renal = test system: TK-10 renal
KM12 colon = test system: KM12 colon
U251 CNS = test system: U251 CNS
RPMI-8226 leukemia = test system: RPMI-8226 leukemia
CAKI-1 renal = test system: CAKI-1 renal
A549 NSCLC = test system: A549 NSCLC
HCT-116 colon = test system: HCT-116 colon
SF-295 CNS = test system: SF-295 CNS
MOLT-4 leukemia = test system: MOLT-4 leukemia
OVCAR-5 ovarian = test system: OVCAR-5 ovarian
HL-60(TB) leukemia = test system: HL-60(TB) leukemia
SK-OV-3 ovarian = test system: SK-OV-3 ovarian
SK-MEL-5 melanoma = test system: SK-MEL-5 melanoma
OVCAR-8 ovarian = test system: OVCAR-8 ovarian
RXF 393 renal = test system: RXF 393 renal
HCT-15 colon = test system: HCT-15 colon
SNB-75 CNS = test system: SNB-75 CNS
SN12C renal = test system: SN12C renal
LXFL 529 NSCLC = test system: LXFL 529 NSCLC
HT29 colon = test system: HT29 colon
NCI-H460 lung = test system: NCI-H460 lung
786-0 renal = test system: 786-0 renal
HCC-2998 colon = test system: HCC-2998 colon
LOX IMVI melanoma = test system: LOX IMVI melanoma
DLD-1 colon = test system: DLD-1 colon
KM20L2 colon = test system: KM20L2 colon
M14 melanoma = test system: M14 melanoma
SK-MEL-28 melanoma = test system: SK-MEL-28 melanoma
SW-620 colon = test system: SW-620 colon
SR leukemia = test system: SR leukemia
SF-268 CNS = test system: SF-268 CNS
UO-31 renal = test system: UO-31 renal
UACC-62 melanoma = test system: UACC-62 melanoma
HS 578T breast = test system: HS 578T breast
BT-549 breast = test system: BT-549 breast
NCI-H522 lung = test system: NCI-H522 lung
DU-145 prostate = test system: DU-145 prostate
OVCAR-3 ovarian = test system: OVCAR-3 ovarian
MCF7 breast = test system: MCF7 breast
MDA-MB-435 = test system: MDA-MB-435
T-47D breast = test system: T-47D breast
COLO 205 colon = test system: COLO 205 colon
NCI-H226 lung = test system: NCI-H226 lung
NCI/ADR-RES ovarian = test system: NCI/ADR-RES ovarian
PC-3 prostate = test system: PC-3 prostate
MDA-N = test system: MDA-N
HOP-62 NSCLC = test system: HOP-62 NSCLC
MDA-MB-231 breast = test system: MDA-MB-231 breast

Which TGI (IGROV1 ovarian) does the source give for c1ccc(C2(c3ccccc3)SSC3(S2)C2CC4CC(C2)CC3C4)cc1 (stereo not drawn) here?
Its TGI is greater than 100 µM.

What about the TGI (SK-MEL-2 melanoma) of the same molecule?
The TGI was greater than 100 µM.

And the TGI (HOP-92 NSCLC)?
Its TGI is greater than 100 µM.

What about the TGI (SNB-19 CNS) of the same molecule?
The TGI was greater than 100 µM.

And the TGI (CCRF-CEM leukemia)?
Its TGI is greater than 100 µM.

And the TGI (K-562 leukemia)?
The TGI was greater than 100 µM.

And the TGI (MALME-3M melanoma)?
Its TGI is greater than 100 µM.

What about the TGI (EKVX NSCLC) of the same molecule?
Its TGI is greater than 100 µM.

And the TGI (A498 renal)?
Its TGI is greater than 100 µM.

What about the TGI (NCI-H23 lung) of the same molecule?
The TGI was greater than 100 µM.

What about the TGI (SNB-78 CNS) of the same molecule?
The TGI was greater than 100 µM.

And the TGI (DMS 114 small cell lung)?
The TGI was greater than 100 µM.

What about the TGI (UACC-257 melanoma) of the same molecule?
The TGI was greater than 100 µM.

And the TGI (OVCAR-4 ovarian)?
The TGI was greater than 100 µM.

What about the TGI (ACHN renal) of the same molecule?
The TGI was greater than 100 µM.

And the TGI (SF-539 CNS)?
The TGI was greater than 100 µM.

And the TGI (TK-10 renal)?
Its TGI is greater than 100 µM.

And the TGI (KM12 colon)?
The TGI was greater than 100 µM.

And the TGI (U251 CNS)?
The TGI was greater than 100 µM.

What about the TGI (RPMI-8226 leukemia) of the same molecule?
Its TGI is greater than 100 µM.

What about the TGI (CAKI-1 renal) of the same molecule?
The TGI was greater than 100 µM.

And the TGI (A549 NSCLC)?
Its TGI is greater than 100 µM.

And the TGI (HCT-116 colon)?
The TGI was greater than 100 µM.

What about the TGI (SF-295 CNS) of the same molecule?
Its TGI is greater than 100 µM.

And the TGI (MOLT-4 leukemia)?
Its TGI is greater than 100 µM.

And the TGI (OVCAR-5 ovarian)?
The TGI was greater than 100 µM.

What about the TGI (HL-60(TB) leukemia) of the same molecule?
Its TGI is greater than 100 µM.

And the TGI (SK-OV-3 ovarian)?
Its TGI is greater than 100 µM.

And the TGI (SK-MEL-5 melanoma)?
The TGI was greater than 100 µM.

What about the TGI (OVCAR-8 ovarian) of the same molecule?
The TGI was greater than 100 µM.

What about the TGI (RXF 393 renal) of the same molecule?
Its TGI is greater than 100 µM.

What about the TGI (HCT-15 colon) of the same molecule?
Its TGI is greater than 100 µM.

And the TGI (SNB-75 CNS)?
The TGI was greater than 100 µM.

And the TGI (SN12C renal)?
The TGI was greater than 100 µM.

What about the TGI (LXFL 529 NSCLC) of the same molecule?
Its TGI is greater than 100 µM.

What about the TGI (HT29 colon) of the same molecule?
Its TGI is greater than 100 µM.

And the TGI (NCI-H460 lung)?
The TGI was greater than 100 µM.

What about the TGI (786-0 renal) of the same molecule?
Its TGI is greater than 100 µM.

And the TGI (HCC-2998 colon)?
The TGI was greater than 100 µM.

What about the TGI (LOX IMVI melanoma) of the same molecule?
The TGI was greater than 100 µM.

What about the TGI (DLD-1 colon) of the same molecule?
The TGI was greater than 100 µM.

What about the TGI (KM20L2 colon) of the same molecule?
Its TGI is greater than 100 µM.

What about the TGI (M14 melanoma) of the same molecule?
Its TGI is greater than 100 µM.

What about the TGI (SK-MEL-28 melanoma) of the same molecule?
Its TGI is greater than 100 µM.

What about the TGI (SW-620 colon) of the same molecule?
The TGI was greater than 100 µM.

What about the TGI (SR leukemia) of the same molecule?
The TGI was greater than 100 µM.

What about the TGI (SF-268 CNS) of the same molecule?
Its TGI is greater than 100 µM.

What about the TGI (UO-31 renal) of the same molecule?
The TGI was greater than 100 µM.

What about the TGI (UACC-62 melanoma) of the same molecule?
The TGI was greater than 100 µM.

How did the TGI (IGROV1 ovarian) turn out when CCOC(=O)/C=C(/C(=O)OCC)n1cc(C)c(=O)n(/C(=C/C(=O)OCC)C(=O)OCC)c1=O was run?
The TGI was 17 µM.

And the TGI (SK-MEL-2 melanoma)?
The TGI was 33 µM.

And the TGI (HOP-92 NSCLC)?
The TGI was 2.91 µM.

And the TGI (SNB-19 CNS)?
The TGI was 36.3 µM.

What about the TGI (CCRF-CEM leukemia) of the same molecule?
Its TGI is 1.53 µM.

And the TGI (K-562 leukemia)?
Its TGI is 3.81 µM.

And the TGI (MALME-3M melanoma)?
The TGI was 4.36 µM.

What about the TGI (HS 578T breast) of the same molecule?
The TGI was 45.7 µM.

What about the TGI (EKVX NSCLC) of the same molecule?
The TGI was 13.9 µM.

What about the TGI (BT-549 breast) of the same molecule?
Its TGI is 15.9 µM.

What about the TGI (A498 renal) of the same molecule?
Its TGI is 36.8 µM.

What about the TGI (NCI-H23 lung) of the same molecule?
Its TGI is 12.9 µM.

What about the TGI (UACC-257 melanoma) of the same molecule?
The TGI was 10.9 µM.

And the TGI (OVCAR-4 ovarian)?
The TGI was greater than 22.3 µM.

And the TGI (ACHN renal)?
The TGI was 4.08 µM.

And the TGI (NCI-H522 lung)?
The TGI was 1.88 µM.

And the TGI (SF-539 CNS)?
Its TGI is 23.5 µM.

What about the TGI (DU-145 prostate) of the same molecule?
Its TGI is 26.6 µM.

What about the TGI (TK-10 renal) of the same molecule?
The TGI was 4.06 µM.

What about the TGI (KM12 colon) of the same molecule?
The TGI was 30.1 µM.

What about the TGI (U251 CNS) of the same molecule?
The TGI was 19.3 µM.

What about the TGI (RPMI-8226 leukemia) of the same molecule?
Its TGI is 4.52 µM.

And the TGI (CAKI-1 renal)?
The TGI was 2.14 µM.

What about the TGI (A549 NSCLC) of the same molecule?
The TGI was 31.8 µM.

What about the TGI (HCT-116 colon) of the same molecule?
The TGI was 4.88 µM.

And the TGI (SF-295 CNS)?
The TGI was 33.5 µM.

And the TGI (MOLT-4 leukemia)?
Its TGI is 5.78 µM.

What about the TGI (OVCAR-5 ovarian) of the same molecule?
The TGI was 14.3 µM.

And the TGI (HL-60(TB) leukemia)?
The TGI was 0.674 µM.

And the TGI (SK-OV-3 ovarian)?
Its TGI is 31.5 µM.

What about the TGI (SK-MEL-5 melanoma) of the same molecule?
Its TGI is 20.8 µM.

And the TGI (OVCAR-8 ovarian)?
Its TGI is 13 µM.

And the TGI (RXF 393 renal)?
Its TGI is 3.73 µM.

And the TGI (HCT-15 colon)?
Its TGI is 4.01 µM.

What about the TGI (SNB-75 CNS) of the same molecule?
The TGI was 24 µM.

And the TGI (SN12C renal)?
Its TGI is 8.58 µM.

And the TGI (HT29 colon)?
Its TGI is 7.72 µM.

And the TGI (OVCAR-3 ovarian)?
The TGI was 7.7 µM.

What about the TGI (MCF7 breast) of the same molecule?
Its TGI is 5.5 µM.

And the TGI (MDA-MB-435)?
Its TGI is 7.76 µM.

And the TGI (T-47D breast)?
Its TGI is 7.86 µM.

What about the TGI (NCI-H460 lung) of the same molecule?
Its TGI is 37.1 µM.

And the TGI (786-0 renal)?
The TGI was 2.56 µM.

What about the TGI (HCC-2998 colon) of the same molecule?
Its TGI is 22.1 µM.

And the TGI (LOX IMVI melanoma)?
The TGI was 7.59 µM.

And the TGI (COLO 205 colon)?
Its TGI is 2.87 µM.

What about the TGI (NCI-H226 lung) of the same molecule?
The TGI was 12.6 µM.

And the TGI (NCI/ADR-RES ovarian)?
Its TGI is 26.1 µM.

And the TGI (PC-3 prostate)?
The TGI was 12.3 µM.

What about the TGI (MDA-N) of the same molecule?
Its TGI is 13.7 µM.

What about the TGI (M14 melanoma) of the same molecule?
The TGI was 6.48 µM.

And the TGI (SK-MEL-28 melanoma)?
The TGI was 5.04 µM.

What about the TGI (SW-620 colon) of the same molecule?
Its TGI is 3.03 µM.

What about the TGI (HOP-62 NSCLC) of the same molecule?
Its TGI is 43.3 µM.

What about the TGI (MDA-MB-231 breast) of the same molecule?
Its TGI is 9.01 µM.

What about the TGI (SR leukemia) of the same molecule?
The TGI was 5.72 µM.

What about the TGI (SF-268 CNS) of the same molecule?
Its TGI is 32.8 µM.

What about the TGI (UO-31 renal) of the same molecule?
Its TGI is 10.8 µM.

And the TGI (UACC-62 melanoma)?
The TGI was 19.4 µM.
